# Measured values taken from patent US8586747B2, “3,3-dimethyl tetrahydroquinoline derivatives” (Hoffmann-La Roche Inc., priority 2010, dated 2013).
# Tested on: AMP-activated protein kinase (AMPK)
# Test: ADP Quest assay for AMPK activators
# Assay type: biochemical
# Set-up: key: fold AMPK activation with vs without activator at 30 µM
# Details: fold of AMPK activation to phosphorylate SAMS peptide without and with an activator at the concentration of 30 µM
# Summary of the method: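 AMPK phosphorylation of SAMS peptide with ATP monitored kinetically at room temperature by ADP Quest fluorescence (ex 530/em 590 nm), reaction started with enzyme. Compounds tested […] in 2-fold dilutions, AMP as reference. E30 is fold activation at 30 µM activator versus none.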
row,SMILES,E30
1,"CC1(C)Cc2cc(C(=O)NS(=O)(=O)C3CC3)ccc2NC1c1cccc(-c2ccc(S(C)(=O)=O)cc2)c1 (stereo not drawn) [Example 161, Cyclopropanesulfonic acid [2-(4′-methanesulfonyl-biphenyl-3-yl)-3,3-dimethyl-1,2,3,4-tetrahydro-quinoline-6-carbonyl]-amide]",1.21
2,"COc1cccc(C2Nc3ccc(C(=O)N4CCC(C)(O)C4)cc3CC2(C)C)c1 (stereo not drawn) [Example 107, (3-Hydroxy-3-methyl-pyrrolidin-1-yl)-[2-(3-methoxy-phenyl)-3,3-dimethyl-1,2,3,4-tetrahydro-quinolin-6-yl]-methanone]",1.29
3,"CC(C)C(=O)Nc1cc(C2Nc3ccc(C(=O)O)cc3CC2(C)C)ccc1F (stereo not drawn) [Example 174, 2-(4-Fluoro-3-isobutyramidophenyl)-3,3-dimethyl-1,2,3,4-tetrahydroquinoline-6-carboxylic acid]",1.54
4,"CC1(C)Cc2cc(C(=O)O)ccc2NC1c1cccc(NS(C)(=O)=O)c1 (stereo not drawn) [Example 201, 3,3-Dimethyl-2-(3-(methylsulfonamido)phenyl)-1,2,3,4-tetrahydroquinoline-6-carboxylic acid]",1.42
5,"CC1(C)Cc2cc(C(=O)O)ccc2NC1c1ccc(NS(=O)(=O)c2ccccc2F)cc1 (stereo not drawn) [Example 213, 2-(4-(2-Fluorophenylsulfonamido)phenyl)-3,3-dimethyl-1,2,3,4-tetrahydroquinoline-6-carboxylic acid]",1.27
6,"CC(C)(Nc1cccc(C2Nc3ccc(C(F)(F)F)cc3CC2(C)C)c1)C(=O)O (stereo not drawn) [Example 45, 2-[3-(3,3-Dimethyl-6-trifluoromethyl-1,2,3,4-tetrahydro-quinolin-2-yl)-phenylamino]-2-methyl-propionic acid]",2.41
7,"CC(C)(Nc1cccc(C2Nc3ccc(C(=O)O)cc3CC2(C)C)c1)C(=O)N1CCOCC1 (stereo not drawn) [Example 41, 2-[3-(1,1-Dimethyl-2-morpholin-4-yl-2-oxo-ethylamino)-phenyl]-3,3-dimethyl-1,2,3,4-tetrahydro-quinoline-6-carboxylic acid]",1.35
8,"Cc1cc(C2Nc3ccc(C(=O)NS(C)(=O)=O)cc3CC2(C)C)cc(N2CCOCC2)c1 (stereo not drawn) [Example 65, N-[3,3-Dimethyl-2-(3-methyl-5-morpholin-4-yl-phenyl)-1,2,3,4-tetrahydro-quinoline-6-carbonyl]-methanesulfonamide]",1.46
9,"CC1(C)Cc2cc(C(=O)O)ccc2NC1c1cccc(NC(=O)NCc2ccccc2)c1 (stereo not drawn) [Example 1, 2-[3-(3-Benzyl-ureido)-phenyl]-3,3-dimethyl-1,2,3,4-tetrahydro-quinoline-6-carboxylic acid]",1.43
10,"Cc1ccccc1N1CCN(c2cccc(C3Nc4c(cc(F)cc4C(=O)O)CC3(C)C)c2)CC1 (stereo not drawn) [Example 92, 6-Fluoro-3,3-dimethyl-2-[3-(4-o-tolyl-piperazin-1-yl)-phenyl]-1,2,3,4-tetrahydro-quinoline-8-carboxylic acid]",1.23
11,"COc1cc(C2Nc3ccc(C(=O)NS(C)(=O)=O)cc3CC2(C)C)cc(N2CCOCC2)c1 (stereo not drawn) [Example 68, N-[2-(3-Methoxy-5-morpholin-4-yl-phenyl)-3,3-dimethyl-1,2,3,4-tetrahydro-quinoline-6-carbonyl]-methanesulfonamide]",1.33
12,"Cc1ccc(N2CCN(c3cccc(C4Nc5ccc(C(=O)NS(C)(=O)=O)cc5CC4(C)C)c3)CC2)c(C)c1 (stereo not drawn) [Example 90, N-(2-{3-[4-(2,4-Dimethyl-phenyl)-piperazin-1-yl]-phenyl}-3,3-dimethyl-1,2,3,4-tetrahydro-quinoline-6-carbonyl)-methanesulfonamide]",1.44
13,"CC(C)NC(=O)C(C)(C)Nc1cccc(C2Nc3ccc(C(=O)NS(C)(=O)=O)cc3CC2(C)C)c1 (stereo not drawn) [Example 43, N-isopropyl-2-[3-(6-methanesulfonylaminocarbonyl-3,3-dimethyl-1,2,3,4-tetrahydro-quinolin-2-yl)-phenylamino]-2-methyl-propionamide]",1.29
14,"CC1(C)Cc2cc(C(=O)O)ccc2NC1c1cccc(C(N)=O)c1 (stereo not drawn) [Example 200, 2-(3-Carbamoylphenyl)-3,3-dimethyl-1,2,3,4-tetrahydroquinoline-6-carboxylic acid]",1.58
15,"CNC(=O)C(C)(C)Nc1cccc(C2Nc3ccc(C(=O)NS(=O)(=O)C4CC4)cc3CC2(C)C)c1 (stereo not drawn) [Example 47, 2-[3-(6-Cyclopropanesulfonylaminocarbonyl-3,3-dimethyl-1,2,3,4-tetrahydro-quinolin-2-yl)-phenylamino]-2,N-dimethyl-propionamide]",1.23
16,"CC1(C)Cc2cc(C(=O)O)ccc2NC1c1ccc(F)c(NC(=O)C2CCCC2)c1 (stereo not drawn) [Example 196, 2-(3-(Cyclopentanecarboxamido)-4-fluorophenyl)-,3-dimethyl-1,2,3,4-tetrahydroquinoline-6-carboxylic acid]",1.25
17,"CC(C)C1COC(=O)N1c1cccc(C2Nc3ccc(C(=O)O)cc3CC2(C)C)c1 (stereo in doubt) [Example 119, 2-[3-((S)-4-Isopropyl-2-oxo-oxazolidin-3-yl)-phenyl]-3,3-dimethyl-1,2,3,4-tetrahydro-quinoline-6-carboxylic acid]",1.5

row,SMILES,E30
1,"CN(C)c1cc(F)cc(C2Nc3ccc(C(=O)NS(C)(=O)=O)cc3CC2(C)C)c1 (stereo not drawn) [Example 50, N-[2-(3-Dimethylamino-5-fluoro-phenyl)-3,3-dimethyl-1,2,3,4-tetrahydro-quinoline-6-carbonyl]-methanesulfonamide]",1.61
2,"CC1(C)Cc2cc(C(=O)O)ccc2NC1c1ccc(F)c(NC(=O)c2ccccc2)c1 (stereo not drawn) [Example 184, 2-(3-Benzamido-4-fluorophenyl)-3,3-dimethyl-1,2,3,4-tetrahydroquinoline-6-carboxylic acid]",1.24
3,"CC(C)Oc1ccc(-c2cccc(C3Nc4ccc(C(=O)NS(=O)(=O)C5CC5)cc4CC3(C)C)c2)cc1 (stereo not drawn) [Example 86, Cyclopropanesulfonic acid [2-(4′-isopropoxy-biphenyl-3-yl)-3,3-dimethyl-1,2,3,4-tetrahydro-quinoline-6-carbonyl]-amide]",2.74
4,"CN(C)c1ccc(-c2cccc(C3Nc4c(cc(Cl)cc4C(=O)NS(=O)(=O)C4CC4)CC3(C)C)c2)cc1 (stereo not drawn) [Example 141, Cyclopropanesulfonic acid [6-chloro-2-(4′-dimethylamino-biphenyl-3-yl)-3,3-dimethyl-1,2,3,4-tetrahydro-quinoline-8-carbonyl]-amide]",1.3
5,"CC1(C)Cc2cc(C(=O)NS(=O)(=O)C3CC3)ccc2NC1c1cccc(N2C(=O)OC[C@H]2Cc2ccccc2)c1 (stereo partly drawn) [Example 130, Cyclopropanesulfonic acid {2-[3-((R)4-benzyl-2-oxo-oxazolidin-3-yl)-phenyl]-3,3-dimethyl-1,2,3,4-tetrahydro-quinoline-6-carbonyl}-amide]",1.25
6,"CN(C)S(=O)(=O)Nc1cccc(C2Nc3ccc(C(=O)O)cc3CC2(C)C)c1 (stereo not drawn) [Example 25, 2-(3-(N,N-dimethylsulfamoylamino)phenyl)-3,3-dimethyl-1,2,3,4-tetrahydroquinoline-6-carboxylic acid]",1.29
7,"CC(C)c1ccc(-c2cccc(C3Nc4c(cc(Cl)cc4C(=O)O)CC3(C)C)c2)cc1 (stereo not drawn) [Example 140, 6-Chloro-2-(4′-isopropyl-biphenyl-3-yl)-3,3-dimethyl-1,2,3,4-tetrahydro-quinoline-8-carboxylic acid]",1.34
8,"CC1(C)Cc2cc(C(=O)O)ccc2NC1c1cccc(NC(=O)N2CCCC2)c1 (stereo not drawn) [Example 35, 3,3-Dimethyl-2-{3-[(pyrrolidine-1-carbonyl)-amino]-phenyl}-1,2,3,4-tetrahydro-quinoline-6-carboxylic acid]",1.41
9,"CC1(C)Cc2cc(C(=O)O)ccc2NC1c1cc(Cl)cc(N2CCOCC2)c1 (stereo not drawn) [Example 55, 2-(3-Chloro-5-morpholin-4-yl-phenyl)-3,3-dimethyl-1,2,3,4-tetrahydro-quinoline-6-carboxylic acid]",1.28
10,"Cc1ccc(N2CCN(c3cccc(C4Nc5ccc(C(=O)NS(=O)(=O)C6CC6)cc5CC4(C)C)c3)CC2)c(C)c1 (stereo not drawn) [Example 91, Cyclopropanesulfonic acid (2-{3-[4-(2,4-dimethyl-phenyl)-piperazin-1-yl]-phenyl}-3,3-dimethyl-1,2,3,4-tetrahydro-quinoline-6-carbonyl)-amide]",1.31
11,"CC1(C)Cc2cc(C(=O)O)ccc2NC1c1cccc(-c2ccc(Cl)cc2)c1 (stereo not drawn) [Example 109, 2-(4′-Chloro-biphenyl-3-yl)-3,3-dimethyl-1,2,3,4-tetrahydro-quinoline-6-carboxylic acid]",1.24
12,"CC(C)[C@@H]1COC(=O)N1c1cccc(C2Nc3ccc(C(=O)NS(C)(=O)=O)cc3CC2(C)C)c1 (stereo partly drawn) [Example 123, N-{2-[3-((R)-4-Isopropyl-2-oxo-oxazolidin-3-yl)-phenyl]-3,3-dimethyl-1,2,3,4-tetrahydro-quinoline-6-carbonyl}-methanesulfonamide]",1.36
13,"CC1(C)Cc2cc(C(=O)O)ccc2NC1c1cccc(C(=O)NC2CC2)c1 (stereo not drawn) [Example 170, 2-(3-(Cyclopropylcarbamoyl)phenyl)-3,3-dimethyl-1,2,3,4-tetrahydroquinoline-6-carboxylic acid]",1.36
14,"CC(C)Oc1ccc(-c2cccc(C3Nc4ccc(C(=O)O)cc4CC3(C)C)c2)cc1 (stereo not drawn) [Example 84, 2-(4′-Isopropoxy-biphenyl-3-yl)-3,3-dimethyl-1,2,3,4-tetrahydro-quinoline-6-carboxylic acid]",1.25
15,"CC(C)(C)c1ccc(-c2cccc(C3Nc4c(cc(Cl)cc4C(=O)O)CC3(C)C)c2)cc1 (stereo not drawn) [Example 142, 2-(4′-tert-Butyl-biphenyl-3-yl)-6-chloro-3,3-dimethyl-1,2,3,4-tetrahydro-quinoline-8-carboxylic acid]",1.54
16,"CC1(C)Cc2cc(C(=O)O)ccc2NC1c1cccc(N2CCN(c3ccc(Cl)cc3)CC2)c1 (stereo not drawn) [Example 87, 2-{3-[4-(4-Chloro-phenyl)-piperazin-1-yl]-phenyl}-3,3-dimethyl-1,2,3,4-tetrahydro-quinoline-6-carboxylic acid]",1.3
